From patent publication US10214527B2, “Triazolopyridine inhibitors of myeloperoxidase” (priority 2015, dated 2019)

Experiments:
Format in all cases: biochemical
myeloperoxidase (MPO) [1] = biological target: T1, myeloperoxidase (MPO) (Homo sapiens (Human), UniProt P05164); assay: MPO chlorination assay (APF assay)
myeloperoxidase (MPO) [2] = biological target: T1, myeloperoxidase (MPO); assay: MPO peroxidation assay (Amplex Red assay)
[3] = biological target: eosinophil peroxidase (EPX) (Homo sapiens (Human), UniProt P11678); assay: EPX bromination assay
Sequence of eosinophil peroxidase (EPX) (P11678 140-715): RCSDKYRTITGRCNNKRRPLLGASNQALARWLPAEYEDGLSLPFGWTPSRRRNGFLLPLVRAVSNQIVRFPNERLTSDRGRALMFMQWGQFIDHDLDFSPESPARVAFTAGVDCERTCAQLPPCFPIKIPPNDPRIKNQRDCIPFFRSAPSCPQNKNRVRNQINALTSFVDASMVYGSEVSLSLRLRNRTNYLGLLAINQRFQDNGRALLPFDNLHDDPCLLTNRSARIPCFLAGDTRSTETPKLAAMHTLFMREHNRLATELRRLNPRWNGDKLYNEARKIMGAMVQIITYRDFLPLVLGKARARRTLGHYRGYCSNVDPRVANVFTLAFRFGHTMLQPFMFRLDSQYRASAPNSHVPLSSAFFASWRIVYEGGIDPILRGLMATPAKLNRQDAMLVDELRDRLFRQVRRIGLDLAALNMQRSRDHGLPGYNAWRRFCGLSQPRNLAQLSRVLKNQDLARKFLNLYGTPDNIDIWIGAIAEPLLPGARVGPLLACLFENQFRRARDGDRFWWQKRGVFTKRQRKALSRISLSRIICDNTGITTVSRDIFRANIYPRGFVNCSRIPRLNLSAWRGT
Description: [formula] where A=minimal Y value (activity level of inhibited sample), B=maximal Y value (activity level of uninhibited sample), C=Log IC50, D=Hill Slope, x=concentration of inhibitor. EPX Bromination Assay
EPX bromination activity was measured in 100 mM KPi (pH 7.4) by monitoring the H2O2 catalyzed formation of 3-bromo tyrosine from tyrosine and potassium bromide. A 50 μl mixture of 0.6 μM EPX (Lee Biosolutions Cat#342-60) was added to 100 nL inhibitor in 100% DMSO in a 384 well REMP plate. Enzyme and compound were preincubated for ten minutes at room temperature.
After the ten minute preincubation of enzyme and inhibitor, 25 μL of a mixture containing 400 μM tyrosine and 1200 μM potassium bromide was added to the plate containing enzyme and inhibitor, followed by the addition of 25 μl of 20 μM H2O2. The reaction was allowed to proceed for 15 minutes, at which time it was quenched with 10 μL of 20% TCA. The final concentrations of all components were 0.3 μM EPX, 100 μM tyrosine, […], 5 μM H2O2, 0.1% DMSO, 2.0% TCA.
IC50 values were determined by determining the peak areas of 3-bromo-tyrosine present at the end of the 15 minute reaction and fitting the data to:
[formula] where A=minimal Y value (activity level of inhibited sample), B=maximal Y value (activity level of uninhibited sample), C=Log IC50, D=Hill Slope, x=concentration of inhibitor.
Reversed-phase analysis was performed on a Waters Acquity Ultra Performance LC system using an Acquity UPLC BEH C18 […], 2.1×50 mm analytical column. The column was maintained at 60° C. Samples were eluted using a gradient of 0%-100% B over 2.5 minutes, followed by equilibration with 100% A for 1 minute where A consisted of 0.1% TFA and B consisted of 90% MeOH/0.1% TFA at a flow rate of 0.6 ml/min. The retention time of 3-bromo tyrosine was 1.22 min.

[4] = MPO chlorination, potency range class, read-out: APF Assay IC50 value
[5] = MPO peroxidation, potency range class, read-out: Amplex Red Assay IC50 value

T1 sequence (P05164 49-745): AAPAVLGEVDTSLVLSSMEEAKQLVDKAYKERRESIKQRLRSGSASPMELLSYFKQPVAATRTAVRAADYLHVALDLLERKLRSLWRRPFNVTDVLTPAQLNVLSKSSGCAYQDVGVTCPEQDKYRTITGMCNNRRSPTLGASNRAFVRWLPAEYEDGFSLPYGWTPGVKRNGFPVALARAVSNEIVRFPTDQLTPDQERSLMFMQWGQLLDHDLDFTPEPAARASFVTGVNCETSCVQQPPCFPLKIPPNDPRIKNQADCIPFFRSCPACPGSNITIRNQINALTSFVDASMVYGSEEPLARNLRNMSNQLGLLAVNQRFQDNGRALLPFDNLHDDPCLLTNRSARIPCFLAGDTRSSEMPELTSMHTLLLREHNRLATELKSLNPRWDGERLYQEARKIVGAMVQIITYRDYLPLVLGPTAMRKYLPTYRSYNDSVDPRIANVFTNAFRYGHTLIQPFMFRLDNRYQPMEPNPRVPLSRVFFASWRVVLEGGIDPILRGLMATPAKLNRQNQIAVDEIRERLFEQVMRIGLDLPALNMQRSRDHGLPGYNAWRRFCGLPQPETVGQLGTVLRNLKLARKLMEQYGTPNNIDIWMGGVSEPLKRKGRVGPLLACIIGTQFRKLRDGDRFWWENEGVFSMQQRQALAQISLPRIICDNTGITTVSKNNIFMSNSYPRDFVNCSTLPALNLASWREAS

Structure (SMILES)	IC50 (myeloperoxidase (MPO) [1]; [4])	IC50 (myeloperoxidase (MPO) [2]; [5])	IC50 [3]	IC50 (myeloperoxidase (MPO) [1])	IC50 (myeloperoxidase (MPO) [2])
Nc1cc(Cc2cccc(OC(F)(F)F)c2)c2nn[nH]c2n1 [Example 29, 7-(3-(trifluorometh-oxy)benzyl)-3H-[1,2,3]triazolo [4,5-b]pyridin-5-amine]	101 to 999 nM	101 to 999 nM			
Nc1cc(Cc2cc(Cl)ccc2F)c2nn[nH]c2n1 [Example 21, 7-(5-chloro-2-fluorobenzyl)-3H-[1,2,3] triazolo[4,5-b]pyridin-5-amine]	1 to 100 nM	1 to 100 nM			
Nc1cc(Cc2cccc(-c3cccc(F)c3)c2)c2nn[nH]c2n1 [Example 14, 7-((3′-fluoro-[1,1′-biphenyl]-3-yl)methyl)-3H-[1,2,3]triazolo [4,5-b] pyridin-5-amine]	1 to 100 nM	101 to 999 nM			
Nc1cc(Cc2cccc(Cc3ccccc3)c2)c2nn[nH]c2n1 [Example 16, 7-(3-benzylbenzyl)-3H-[1,2,3]triazolo [4,5-b]pyridin-5-amine]	1 to 100 nM	1 to 100 nM			
Cc1cc(C)cc(Cc2cc(N)nc3[nH]nnc23)c1 [Example 31, 7-(3,5-dimethylbenzyl)-3H-[1,2,3] triazolo[4,5-b]pyridin-5-amine]	101 to 999 nM	1 to 100 nM	34 nM		
CS(=O)(=O)c1cccc(Cc2cc(N)nc3[nH]nnc23)c1 [Example 13, 7-(3-(methylsulfon-yl)benzyl)-3H-[1,2,3]triazolo [4,5-b]pyridin-5-amine]				1000 to 10000 nM	1000 to 10000 nM
Nc1cc(Cc2ccc(-n3cccn3)cc2)c2nn[nH]c2n1 [Example 11, 7-(4-(1H-pyrazol-1-yl)benzyl)-3H-[1,2,3]triazolo [4,5-b]pyridin-5-amine]	101 to 999 nM	101 to 999 nM			
Nc1cc(Cc2ccc(F)cc2)c2nn[nH]c2n1 [Example 28, 7-(4-fluorobenzyl)-3H-[1,2,3]triazolo [4,5-b]pyridin-5-amine]	101 to 999 nM	101 to 999 nM			

The remaining lines, values ahead:

IC50 (myeloperoxidase (MPO) [1]; [4])	IC50 (myeloperoxidase (MPO) [2]; [5])	IC50 [3]	IC50 (myeloperoxidase (MPO) [1])	IC50 (myeloperoxidase (MPO) [2])	Structure (SMILES)
101 to 999 nM	1 to 100 nM				Nc1cc(Cc2cccc(-c3ccn(Cc4ccccc4)n3)c2)c2nn[nH]c2n1 [Example 48, 7-(3-(1-Benzyl-1H-pyrazol-3-yl)benzyl)-3H-[1,2,3]triazolo[4,5-b]pyridin-5-amine]
101 to 999 nM	1 to 100 nM	19 nM			Nc1cc(Cc2cccc3c2ccn3Cc2cccc(F)c2)c2nn[nH]c2n1 [Example 64, 7-((1-(3-Fluorobenzyl)-1H-indol-4-yl)methyl)-3H-[1,2,3]triazolo[4,5-b]pyridin-5-amine]
101 to 999 nM	101 to 999 nM				Nc1cc(Cc2cccnc2)c2nn[nH]c2n1 [Example 56, 7-(pyridin-3-ylmethyl)-3H-[1,2,3] triazolo[4,5-b]pyridin-5-amine]
1 to 100 nM	1 to 100 nM				Nc1cc(Cc2cccc3c2cnn3Cc2ccccc2)c2nn[nH]c2n1 [Example 65, 7-((1-Benzyl-1H-indazol-4-yl)methyl)-3H-[1,2,3]triazolo[4,5-b]pyridin-5-amine]
101 to 999 nM	101 to 999 nM				Nc1cc(Cc2cccc(C(=O)c3ccccc3)c2)c2nn[nH]c2n1 [Example 40, (3-((5-amino-3H-[1,2,3]triazolo [4,5-b]pyridin-7-yl)methyl)phenyl)(phenyl) methanone]
101 to 999 nM	101 to 999 nM				Nc1cc(Cc2ccc(F)c(F)c2)c2nn[nH]c2n1 [Example 34, 7-(3,4-difluorobenzyl)-3H-[1,2,3] triazolo[4,5-b]pyridin-5-amine]
	1 to 100 nM	52 nM			Nc1cc(Cc2cncc(Cl)c2)c2nn[nH]c2n1 [Example 57, 7-((5-chloropyridin-3-yl)methyl)-3H-[1,2,3]triazolo [4,5-b]pyridin-5-amine]
101 to 999 nM	101 to 999 nM				COC(=O)c1cc(Cc2cc(N)nc3[nH]nnc23)ccc1F [Example 50, methyl 5-((5-amino-3H-[1,2,3]triazolo [4,5-b]pyridin-7-yl)methyl)-2-fluorobenzoate]
1 to 100 nM	1 to 100 nM				Nc1cc(Cc2cccc3c2ccn3Cc2cccc(Cc3ccccc3)c2)c2nn[nH]c2n1 [Example 62, 7-((1-(3-Benzylbenzyl)-1H-indol-4-yl)methyl)-3H-[1,2,3]triazolo[4,5-b]pyridin-5-amine]
101 to 999 nM	101 to 999 nM				Nc1cc(Cc2ccc(F)cc2F)c2nn[nH]c2n1 [Example 43, 7-(2,4-difluorobenzyl)-3H-[1,2,3] triazolo[4,5-b]pyridin-5-amine]
